Consider three molecules from PMC12811658, “Design, Synthesis, and Structural Evolution of Pseudo‐Natural Product IDO1 Inhibitors and Degraders” (Angewandte Chemie (International Ed. in English), 2025).

Assay [1] has as its target IDO1 protein levels in BxPC3 cells (Homo sapiens, UniProt P14902). Briefly: IDO1 immunoblotting (degradation). It counts as cell-based. Further details: endogenous in cells; host or cells: BxPC3 (DSMZ), IFN-γ stimulated. The note with it: for Max. degradation (%): 24 h incubation, mean ± SD; for IDO1 protein level by immunoblotting (in words): IFN-γ 24 h, washout, compounds 24 h.

A further assay has as its target T1, recombinant human IDO1 (Homo sapiens, UniProt P14902).
T1 construct: The GST-tag of IDO1 was removed to obtain untagged full-length IDO1l using PreScission protease; GST (N, cleaved yes); made in house; own inference
Briefly: IDO1 enzymatic assay in vitro. It counts as biochemical.

Assay [2] has as its target T2, heme-bound IDO1 (holo-IDO1) (Homo sapiens, UniProt P14902).
T2 construct: The GST-tag of IDO1 was removed to obtain untagged full-length IDO1l using PreScission protease; GST (N, cleaved yes); made in house; own inference
Description: UV/Vis detection of heme-bound IDO1 (heme displacement). It counts as binding. The conditions noted are these: 50 µM; for heme displacement from holo-IDO1 (in words): 37 °C, 3 h, Soret band 404 nm. As for the experimental part: (§1) Incubation at 37 °C for 3 h. Representative data for n = 3. c) Time‐course of heme displacement from IDO1 detected by the absorbance at the Soret peak (404 nm) as a function of time. […] All curves were fit using a one‐site model with N = 1 and defined IDO1 concentration. Left plots show baseline corrected data, while right plots show integrated binding isotherms versus iDegs/IDO1 ratio. IDO1 protein (125 µM) was titrated into the stirred sample cell containing iDegs (25 µM, except for iDeg‐8 at 50 µM). Representative data for n = 3, except for iDeg‐9 (n = 2). g)–i) In vivo activity of iDeg‐6. NSG immunodeficient mice were injected with SKOV‐3 cells. Mice were treated with 18 intraperitoneal injections of iDeg‐6 (30 mg kg^−1) or vehicle. The pharmacological treatment was twice daily. Tumor volume was determined weekly by digital caliper. g) SKOV‐3 tumor growth curves in iDeg‐6‐treated mice (n = 12, green lines) or vehicle‐treated mice (n = 13, gray lines). Statistical analysis was performed by two‐way ANOVA: ****p < 0.001. h) Body weight changes during treatment window (mean values ± range). i) Survival data are shown by Kaplan‐Meier survival analysis. Mantel–Haenszel statistical analysis: p < 0.0001).
Representative data of n=3 biological replicates. c, IDO1 was incubated with compounds (50 µM) or DMSO (control). UV/VIS spectra were acquired at five time points to monitor heme loss over time. Data are representative of two replicates.
The test compounds or DMSO (vehicle control) were incubated with recombinant full-length human IDO1 (rhIDO1; 10 µM) in 50 mM potassium phosphate buffer (pH 6.5) for 3 h at 37 °C. Following incubation, samples were centrifuged at 5,000 × g for 10 minutes. UV/Vis absorption spectra were then recorded from 250 nm to 650 nm in 1 nm increments using UV-transparent microplates (UV-STAR®, Greiner Bio-One, Austria) on a Spark® multimode microplate reader (Tecan, Austria). Absorbance values were analyzed at 404 nm (A404), and were plotted using GraphPad Prism version 9.0 (GraphPad Software, USA).

Assay [3] concerns the target T3, recombinant full-length human IDO1 (Homo sapiens, UniProt P14902).
T3 construct: The GST-tag of IDO1 was removed to obtain untagged full-length IDO1l using PreScission protease; GST (N, cleaved yes); made in house; own inference
Briefly: Thermal shift assay (nanoDSF). It counts as binding. The conditions noted are these: 50 µM, 3 h at 37 °C. The protocol: as §1, with “0.0001). […]” for “0.0001).”
The test compounds or DMSO (vehicle control) were incubated with recombinant full-length human IDO1 (rhIDO1; 10 µM) in 50 mM potassium phosphate buffer (pH 6.5) for 3 h at 37 °C. Following incubation, samples were centrifuged at 5,000 × g for 10 minutes, then the protein-compound solutions were loaded into capillaries, and thermal unfolding was assessed using the Prometheus Panta system (NanoTemper® Technologies, Germany). Fluorescence intensities at 330 nm and 350 nm were recorded at temperature increments of 0.115 °C from 20 °C to 90 °C. Melting temperatures (Tm) were automatically calculated using Prometheus NT.48 analysis software. The resulting thermal denaturation curves, with Tm defined as the temperature at the maximum derivative of the unfolding transition, were visualized and analysed using GraphPad Prism version 9.0 (GraphPad Software, USA).
In general terms: Differential scanning fluorimetry follows unfolding on heating by fluorescence.

For assay [4], the target named is T4, IDO1 protein in IFN-γ stimulated HeLa cells (Homo sapiens, UniProt P14902).
T4 construct: endogenous in cells; host or cells: HeLa (DSMZ), IFN-γ stimulated
Description: IDO1 immunostaining (immunofluorescence). It counts as cell-based. The note with it: 24 h. As for the experimental part:
Figure 3 Comparison of IDO1 degradation efficiency for selected compounds. a) Detection of IDO1 levels using immunostaining. IFN‐γ stimulated HeLa cells were treated with the compounds for 24 h. IDO1 protein abundance was detected with IDO1 antibody. Data are mean values ± SD, n = 3. b) IDO1 protein levels in BxPC3 cells upon compounds treatment were detected using immunoblotting. BxPC3 cells were treated with IFN‐γ for 24 h prior to washout, followed by addition of compounds. Representative blot and quantified band intensities are shown (mean values ± SD, n = 3). See Figure S11a S12a for the uncropped blots. c) Key functions of hit compounds that influence degradation efficiency. d) Heatmap for IDO degradation efficiency. IDO1 levels were monitored as described in (c). See Table S1 for mean values and Figure S11b for the uncropped blots. e)–g) Dose dependent degradation of IDO1 protein in BxPC3 cells treated with iDeg‐7–9 and detected as described in (c). Representative data of n = 3 except for iDeg‐9 (n = 4). See Figure S12 S13 for the uncropped blots. h) Quantification of IDO1 protein levels from e‐g (mean values ± SD, n = 3 except for iDeg‐9 (n = 4). i) Tabulated inhibition and degradation ability of iDeg‐6–9. ND: not detected. j) Volcano plot of iDeg‐6‐induced changes on the global proteome. SKOV‐3 cells were treated with 10 µM iDeg‐6 or DMSO for 4 h followed by protein extraction, tryptic digest and LC‐MS/MS analysis (n = 4). Plot generated using UMSAP (T 0 = 0.5, S 0 = 0.5).
IFN-γ-stimulated Hela cells (5 ng/mL IFN-γ) were seeded in 96-well plates and incubated for 24 h. Subsequently, IFN-γ was washed out and cells were treated with compounds for additional 24 h. Cells were then washed once with PBS and fixed with 3.7% paraformaldehyde for 10 min at room temperature. Cells were washed three times with ice-cold PBS. […] Images were analyzed by SpectraMax Paradigm microplate reader (Molecular Devices) to extract IDO1 fluorescence intensity as well as the cell count. IDO1 fluorescence intensity was normalized to cell count. […]

Assay [5] concerns Kyn levels in BxPC3 cells (kynurenine generated by IDO1). Description: Cellular Kyn assay (automated Kyn screening assay). It counts as cell-based. The conditions noted are these: IFN-γ, L-Trp and compounds 48 h, mean ± SD, read-out: IC50 (Kyn assay), reduction of kynurenine levels.
Assay [6] addresses T3, recombinant full-length human IDO1. Description: Isothermal titration calorimetry (ITC). It counts as binding. The note with it: 25 °C. As for the experimental part: as §1
ITC was performed using the MicroCal PEAQ-ITC system (Malvern) at 25 °C. Recombinant human full-length IDO1 (rhIDO1) was buffer-exchanged into 100 mM phosphate buffer (50 mM KH₂PO₄ and 50 mM K₂HPO₄, pH 6.57) with 1 mM TECP using a 10 K Amicon® Ultra centrifugal filter (Millipore). The buffer exchange was repeated ten times to ensure complete removal of interfering components. The final protein sample was diluted in the same phosphate buffer prior to titration.125 μM protein in 100 mM phosphate buffer was loaded into the syringe, while 25 μM compound (except for iDeg-8, 50 μM) in 100 mM phosphate buffer was loaded to the cell. All samples were adjusted to 25 °C and degassed before loading. Titrations were performed at 25 °C with one injection of 0.4 µL, followed by 18 injections of 2 µL. Experiments were performed with three biological replicates except for iDeg-9 with two biological replicates. Data were analyzed using the MicroCal PEAQ-ITC Analysis software and were plotted using GraphPad Prism 9.0 (GraphPad, USA).
Background: Isothermal titration calorimetry measures the heat released or taken up as one component is titrated into another.

Setting [7] is: at 14 µM, pre-incubation 37 °C 45 min, mean ± SD.
Setting [8] is: pre-incubation 37 °C 45 min, determined if inhibition at 14 µM higher than 50%.

Molecules are shown by their SMILES. Like-named read-outs stand apart in the source and are kept apart here. Some results are limits rather than exact numbers.

T3 sequence (P14902 whole entry): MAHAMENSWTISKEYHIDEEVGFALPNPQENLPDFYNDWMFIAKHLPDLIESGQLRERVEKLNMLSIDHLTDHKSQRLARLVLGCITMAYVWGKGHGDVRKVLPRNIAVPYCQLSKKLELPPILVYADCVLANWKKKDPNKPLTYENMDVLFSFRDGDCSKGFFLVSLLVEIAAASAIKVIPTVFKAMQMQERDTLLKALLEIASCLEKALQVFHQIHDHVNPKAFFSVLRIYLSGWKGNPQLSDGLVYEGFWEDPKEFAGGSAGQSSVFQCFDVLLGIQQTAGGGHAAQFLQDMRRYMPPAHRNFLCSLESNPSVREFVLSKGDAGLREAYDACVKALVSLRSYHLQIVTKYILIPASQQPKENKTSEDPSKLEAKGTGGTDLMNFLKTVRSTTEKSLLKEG
IDO1 protein levels in BxPC3 cells, sequence (P14902 whole entry): as above
T1 sequence (P14902 whole entry): as above
T2 sequence (P14902 whole entry): as above
T4 sequence (P14902 whole entry): as above

On to `CC(C)(C)c1ccc(S(=O)(=O)N2C[C@H]3C[C@H]4C[C@H](C4(C)C)[C@@]3(COC(=O)Nc3ccc(I)cc3)C2)cc1` [14 (iDeg-2)], for which the entries for the “Max. degradation (%)” value in assay [1] (10 nM) and in assay [1] (100 nM) were 20 ± 9 (3) % and 37 ± 14 (3) %, respectively. Moreover, the “Degradation Efficiency (%)” value in assay [1] (100 nM, BxPC3 cells, heatmap Fig. 3d) is 37%. Besides, the “IDO1 protein level by immunoblotting (in words)” value (from here on “IDO1 protein level”) in assay [1] (BxPC3 cells) is listed as “modulate IDO1 abundance”. The inhibition at 14 µM on recombinant human IDO1 (setting [7]) is less than 25%. The “IDO1 activity IC50 [µM] (in vitro assay)” value at recombinant human IDO1 (setting [8]) was “– (Inactive: >75% Kyn level observed up to a concentration of 14 µM and no IC50 value obtained)”. Moreover, in assay [2], the “heme displacement from holo-IDO1 (in words)” value was “displaced heme to a similar extent”. Moreover, in assay [3], the “shift in IDO1 melting temperature ΔTm / binding in TSA (in words)” value is listed as “identical binding in the TSA assay”. For the same molecule, the “IDO1 staining fluorescence intensity (in words)” value in assay [4] is “reduced the fluorescence intensity of the IDO1 staining”. For the same molecule, the IC50 in assay [5] (Homo sapiens, BXPC-3, 48 h) was determined as 0.12 ± 0.02 µM.

For `C#Cc1ccc(NC(=O)OC[C@]23CN(S(=O)(=O)c4ccc(C(C)(C)C(=O)O)cc4C)C[C@H]2C[C@H]2C[C@@H]3C2(C)C)cc1` [102 (iDeg-9), 2-(4-(((3aS,4R,6R,7aS)-3a-((((4-ethynylphenyl)carbamoyl)oxy)methyl)-5,5-dimethyloctahydro-2H-4,6-methanoisoindol-2-yl)sulfonyl)-3-methylphenyl)-2-methylpropanoic acid], the “Max. degradation (%)” value in assay [1] (10 nM) is on record as 20 ± 9 (9) %. The “Max. degradation (%)” value in assay [1] (100 nM) is 21 ± 20 (9) %. In assay [1] (BXPC-3, @100 nM, BxPC3 cells), this molecule displayed a Dmax at 0.1 µM of 21%. For the same molecule, the “IDO1 protein level” value in assay [1] (BxPC3 cells) was “barely affected the IDO1 level”. For the same molecule, on recombinant human IDO1 (setting [7]), the inhibition at 14 µM turned out to be 64 ± 1%. Besides, the IC50 on recombinant human IDO1 (setting [8]) stood at 0.089 ± 0.03 µM. Also, the “heme displacement from holo-IDO1 (in words)” value in assay [2] is given as “most efficient heme displacement”. Also, the “time course of heme displacement (in words)” value in assay [2] (absorbance at 404 nm over time, compared to iDeg-6 and -8) is given as “faster”. Also, the “shift in IDO1 melting temperature ΔTm / binding in TSA (in words)” value in assay [3] is recorded as “highest ΔT m value”. Further, the IC50 in assay [5] (Homo sapiens, BXPC-3, 48 h) was 0.005 µM. In addition, in assay [6], the “-TΔS (ITC)” value came out at 65.3 kJ/mol, the Kd amounted to 0.215 µM, the “ΔG (ITC)” value is -38.1 kJ/mol and the “ΔH (ITC)” value was -103 ± 1.3 kJ/mol. For the same molecule, the Kd in assay [6] (one-site model) stood at 0.22 ± 0.02 µM.

With `CC(C)(C)c1ccc(S(=O)(=O)N2CC[C@@]3(C2)[C@@H]2C[C@H](C[C@H]3OC(=O)Nc3ccc(I)cc3)C2(C)C)cc1` [compound 22, (1R,2S,3R,5R)-1'-((4-(tert-butyl)phenyl)sulfonyl)-6,6-dimethylspiro[bicyclo[3.1.1]heptane-2,3'-pyrrolidin]-3-yl (4-iodophenyl)carbamate], the “IDO1 protein level” value in assay [1] (BxPC3 cells) was “did not reduce the IDO1 protein level”. Moreover, the “IDO1 activity Inhibition (%)” value on recombinant human IDO1 (setting [7]) is on record as “ns (not significant)”. On recombinant human IDO1 (setting [8]), the “IDO1 activity IC50 [µM] (in vitro assay)” value was “– (Inactive: >75% Kyn level observed up to a concentration of 14 µM and no IC50 value obtained)”. Besides, the “in vitro IDO1 inhibition (in words)” value on recombinant human IDO1 (up to 14 µM, incubated with IDO1 for 45 min) was “no activity”. In addition, in assay [2], the “heme displacement from holo-IDO1 (in words)” value is reported as “displaced heme to a similar extent”. Further, the “shift in IDO1 melting temperature ΔTm / binding in TSA (in words)” value in assay [3] is given as “identical binding in the TSA assay”. Moreover, in assay [4], the “IDO1 staining fluorescence intensity (in words)” value is on record as “did not induce IDO1 protein degradation”. For the same molecule, in assay [5], the IC50 was determined as 0.49 ± 0.06 µM.

In general, inhibition refers to the relative decrease from the control value, in per cent. For orientation: IC50 means the concentration at which inhibition is half-maximal. One may read the Dmax as the greatest extent of degradation seen. As a reminder, the Kd is a measure of binding affinity in units of concentration.
